Data as given in article PMC9229798, “Antioxidant Activity and Cytotoxicity of Aromatic Oligosulfides” (Molecules, 2022).
Where “and” joins values, the source holds several entries; their conditions need not be identical. Equal entries are not always repeated. Entries after “also recorded” stand apart in the source; their conditions may differ.

Legend:
[1] = Antiradical activity, quinoid oxidation (autoxidation) of adrenaline; details: adrenaline autoxidation in alkaline buffer, compound initial 25 µM
[2] = FRAP assay (ferric reducing antioxidant power); details: Trolox equivalents
Procedure: The assessment of antioxidant activity was also carried out by the FRAP (Ferric Reduction Aantioxidant Power) method based on electron transfer similar to the CUPRAC method, while in the DPPH test, the reaction proceeded according to the HAT mechanism. Antioxidant activity of compounds 1–6 was also calculated in Trolox equivalents (TEACFRAP). […] The lowest activity was obtained for trisulfide 1 and disulfide 5, which are characterized by the absence of functional groups in the benzene ring. The TEACFRAP values for disulfide 2 with a methoxy group and compounds 4 and 6 with a phenolic fragment differed insignificantly and amounted to 0.58 and 0.69 Trolox equivalents.
The sample solution (0.1 mL) was mixed with 0.1 mL phosphate buffer (0.2 M, pH 6.6) and 0.1 mL potassium ferricyanide (1%). For each test compound different concentrations in EtOH were used (5, 10, 25, 50, 100, 200 and 250 μM). The resulting mixture was incubated at 50 °C for 20 min. After the incubation period, 0.1 mL trichloroacetic acid (10%), 0.5 mL deionized water, and 0.1 mL ferric chloride (0.1%) were added to the mixture. The sample absorbance was read at 700 nm with a 96-cell microplate spectrophotometer. The reduction of Fe (III) to Fe (II) could be expressed as % inhibition or equivalent of a standard compound (e.g., Trolox).

[3] = TBARS accumulation in oleic acid oxidation; details: 1 mmol/L additive, 65 °C, 3 h
Procedure: The total antioxidant activity of compounds 1–6 during the oxidation of oleic acid with atmospheric oxygen at 65 °C for 3 h was determined by standard methods according to the level of accumulation of the main metabolites. Hydroperoxides as primary products (LOOH) and secondary LPO carbonyl products formed colored complexes with thiobarbituric acid (TBARS).
The kinetics of LOOH and TBARS formation was similar in the control test and in the presence of the studied compounds. The exponential kinetic curves of LOOH accumulation in oleic acid corresponded to the equation CLOOH = a × e^kt with correlation coefficients close to 1. It indicated a pseudo-first order of reaction in the substrate, inherent in a radical process with degenerate chain branching (Figure 2). The kinetic curves of secondary carbonyl products were linear and corresponded to the equation CTBARS = kt + b, with correlation coefficients close to 1 (Figure 3).
The accumulation rate for the final oxidation products (TBARS) was determined according to a modified standard method. Samples (0.01 mL) of oleic acid were taken from the thermostat every 30 min. They were introduced into a test tube containing a mixture of Tris buffer (0.8 mL), distilled water (1.2 mL), and freshly prepared thiobarbituric acid solution (0.8%, 1 mL). The tube was placed for 10 min in a boiling water bath, and after cooling, the absorption of the samples was measured in comparison with that of the control at λ = 532 nm. A similar mixture, but without added oleic acid, was used as the control. The concentration of carbonyl compounds was calculated according to the formula:
[TBARS] = (E × 3)/0.156, where [TBARS] is the content of carbonyl compounds, nM; E is the extinction of a sample relative to the control; 3 is the sample volume, mL; and 0.156 is the extinction of malondialdehyde (1 nmol) dissolved in 1 mL at λ = 532 nm.

[4] = NBT assay, superoxide radical anion formation by xanthine oxidase; type: biochemical; details: sample solution 5 mM in DMSO
Text: The superoxide radical anion was generated in the xanthine/xanthine oxidase enzymatic system and reduced nitroblue tetrazolium (NBT) to an intensely blue colored diformazan (λ = 560 nm). There was a decrease in the concentration of diformazan in the presence of a potential antioxidant that absorbs O2^–•. […] Despite the fact that compounds 2 and 6 were structurally similar to the corresponding disulfides 3 and 4, they were not active in this assay.
EDTA, xanthine, bovine serum albumin, nitroblue tetrazolium, and xanthine oxidase (25 MU) were purchased from Sigma Aldrich, Burlington, MA, USA. The superoxide anions were generated enzymatically by the xanthine oxidase system. The reaction mixture consisted of 2.70 mL of 40 mM sodium carbonate buffer containing 0.1 mM EDTA (pH 10.0), 0.06 mL of 10 mM xanthine, 0.03 mL of 0.5% bovine serum albumin, 0.03 mL of 2.5 mM nitroblue tetrazolium, and 0.06 mL of the sample solution in DMSO at the concentration of 5 mM. An amount of 0.12 mL of xanthine oxidase (0.04 units) was added to the mixture at 25 °C, and the absorbance at 560 nm (by formation of blue formazan) was measured by microplate spectrophotometer for 60 s. A control experiment was carried out by replacing the sample solution with the same amount of DMSO.
Inhibition I (%) = [(1 − Ai/A0) × 100%], where Ai is the absorbance in the presence of the testing compound, A0 is the absorbance of the blank solution [78]. All experiments were performed three times.

[5] = CUPRAC assay (cupric reducing antioxidant capacity); details: Trolox equivalents; compound 0.5 mM, 30 min
Procedure: Antioxidant activity can be evaluated by the CUPRAC test (cupric reducing antioxidant capacity) based on the ability of the compound to reduce Cu^2+ in complex with 2,9-dimethyl-1,10-phenanthroline (neocuproin). The antioxidant capacity of compounds 1–6 in the CUPRAC test was measured in equivalents of the water-soluble analogue of vitamin E—Trolox (TEACCUPRAC) (Table 2). […] The TEACCUPRAC values of disulfides 4 and 6 were quite close and indicated the manifestation of antioxidant activity mainly due to the presence of HO-groups. The slightly lower activity of compound 4 was explained by the absence of tert-butyl groups in its structure.
Neocuproine (2,9-dimethyl-1,10-phenanthroline) and Trolox were used with no further purification. The method proposed by Apak et al. was used with slight modification. For these measurements, 0.05 mL of CuCl2 solution (0.01 M), 0.05 mL of MeOH neocuproine solution (7.5 mM) and 0.05 mL of ammonium acetate buffer solution (1 M) were added to a test tube, followed by mixing with the 0.05 mL tested compounds (0.5 mM). The mixtures were kept at room temperature for 30 min. Absorbance was measured at 450 nm against a reagent blank. The results were presented in Trolox equivalents (Trolox equivalent antioxidant capacity, TEAC) obtained using absorbance data, and the linear calibration curve was plotted as absorbance vs. Trolox concentration.

Structure (SMILES)	NBT, % Inhibition [4]	Antiradical Activity, % Inhibition [1] [%]	TEAC FRAP [2]	TBARS, % Inhibition [3] [%]	TEAC CUPRAC [5]
Oc1ccc(SSc2ccc(O)cc2)cc1 [Compound 4, 4,4′-dihydroxydiphenyl disulfide]	57.8 ± 0.07%	36 ± 2.3	0.69 and 0.69 ± 0.07	39.0 ± 0.49	1.8 and 1.80 ± 0.06
COc1ccccc1SSc1ccccc1OC [Compound 2, bis(2-methoxyphenyl) disulfide]	not active; also recorded: non active	50 ± 3.1	0.58 and 0.58 ± 0.05	42.9 ± 0.76	non active
CC(C)(C)c1cc(SSc2cc(C(C)(C)C)c(O)c(C(C)(C)C)c2)cc(C(C)(C)C)c1O [Compound 6, bis(3,5-di-tert-butyl-4-hydroxyphenyl) disulfide]	not active; also recorded: non active		0.69 and 0.69 ± 0.02		
COc1ccc(SSc2ccc(OC)c(OC)c2)cc1OC [Compound 3, bis(3,4-dimethoxyphenyl) disulfide]	24.3 ± 0.05%				0.06 ± 0.01

The next lines start with results.

NBT, % Inhibition [4]	Structure (SMILES)	Antiradical Activity, % Inhibition [1] [%]	TEAC FRAP [2]	TBARS, % Inhibition [3] [%]	TEAC CUPRAC [5]
non active	c1ccc(SSc2ccccc2)cc1 [Compound 5, diphenyl disulfide]		0.06 ± 0.05		
non active	c1ccc(SSSc2ccccc2)cc1 [Compound 1, diphenyl trisulfide]	30 ± 1.9	0.06 ± 0.01	21.0 ± 0.18	non active
